Assay results published in US20220040179A1, “USE OF CDK8/19 INHIBITORS FOR TREATMENT OF ESTABLISHED COLON CANCER HEPATIC METASTASIS” (University of South Carolina, priority 2017, published 2022).

Assays:
[1] = tested on: CT26 cells; test: splenic injection model, CT26 cells: spleen (primary tumor) and liver (metastatic tumor) weights; assay type: in vivo, mouse; conditions: 40 mg/kg daily i.p., 16 days, BALB/c mice
Description: To compare the effects of CDK8/19 inhibition on primary and metastatic tumor growth, we used a splenic injection model (Lafreniere and Rosenberg, 1986; Zhang et al., 2009), where tumor cells are injected in the spleen, from where they metastasize into the liver. In the study shown in FIG. 4, 2×10^5 CT26 cells were injected into the spleens of 8 weeks old female BALB/c mice, and mice were treated by daily i.p. injection of Senexin B dichloride (40 mg/kg) in 10 mM citrate buffer, pH6, 150 mM NaCl or with vehicle control (n=9). 1 6 days later, mice were sacrificed and the weights of tumor-containing spleens (primary tumor) and livers (metastatic tumor) were measured.
Mice were sacrificed 16 days after tumor cell inoculation into the spleen and spleens and livers were weighed.

[2] = tested on: human HCTl 16 colon cancer cells; test: splenic injection model, human HCT116 cells in athymic nude mice: liver weights; assay type: in vivo; conditions: 50 mg/kg by gavage b.i.d. in CD vehicle, 7 weeks after inoculation
Description: The splenic injection model was used to test the effect of Senexin B on hepatic metastasis of human HCTl 16 colon cancer cells, which are […] to small-molecule CDK8/19 inhibitors (Koehler et al., 2016; Pelish et al., 2015; Porter et al., 2012). 1×10^6 HCTl 16 cells were injected into the spleens of athymic nude (nu/nu) mice (JAX #002019) mice (female, 8 weeks old), and spleens were removed 1 min later. Mice were treated with Senexin B dimaleate (50 mg/kg by gavage in CD vehicle, b.i.d.) or vehicle control (n=10). 7 weeks after tumor cell inoculation, mice were sacrificed and livers with tumor metastases (FIG. 8A) were collected.

[3] = toxicity and body weight in mice receiving Senexin B diet; assay type: in vivo; conditions: Senexin B diet relative to control diet
Description: (§1) We have analyzed the survival of mice after splenic injection of 2×10^5 CT26 cells into 8 week old female BALB/c mice, followed by removal of the spleen 1 minute after injection. Mice were sacrificed when paralysis, lack of movement or paleness (due to abdominal hemorrhage) occurred. […] To establish serum drug concentrations associated with therapeutic efficacy in this model, we conducted a similar survival study where Senexin B dimaleate was administered by mixing the drug into mouse food, which provides for sustained drug delivery over time. Senexin B was mixed into food at two concentrations differing approximately 4-fold and designated low-dose and high-dose. Serum samples were collected from treated mice and Senexin B in the serum was measured by a LC/MS/MS assay.

[4] = tested on: CT26 cells; test: survival of mice after splenic injection of CT26 cells followed by removal of the spleen; assay type: in vivo, mouse
Description: as §1

[5] = tested on: CT26 cells; test: splenic injection model, CT26 cells: timing of drug administration, liver weights two weeks after inoculation; assay type: in vivo, mouse; conditions: 50 mg/kg gavage b.i.d.
Description: To determine if the anti-metastatic effects of CDK8/19 inhibition observed in the splenic injection model were due to the prevention of the initial establishment of hepatic metastases or growth inhibition of already-established metastases, we asked whether Senexin B can inhibit metastatic growth in the liver when the drug is administered after the metastases have been established. […] We compared the effects of Senexin B dimaleate on hepatic metastasis, when the drug was administered by gavage at 50 mg/kg doses in CD vehicle, b.i.d. two days prior to splenic inoculation, during the first week after inoculation, during the second week after inoculation, or over the entire two-week period following splenic inoculation of CT26 cells.

[6] = tested on: CT26 tumors; test: primary CT26 tumors implanted subcutaneously in BALB/c mice; assay type: in vivo, mouse; conditions: unmodified CT26 cells, female BALB/c mice; 50 mg/kg by gavage b.i.d. in CD vehicle vs vehicle
Description: We further investigated the effects of CDK8/19 inhibition or knockdown on the growth of primary CT26 tumors implanted subcutaneously (s.c.), at I xl 0^6 cells, in 8 weeks-old female BALB/c mice (n=I0). FIG. 3A compares the dynamics of tumor growth and final tumor weights for CT26 cells transduced with insert-free pLK0.1 (vector control) or shCDK8-1. […] FIG. 3B compares s.c. tumor growth of unmodified CT26 cells in mice treated with Senexin B dimaleate, administered by gavage at 50 mg/kg doses (weight doses calculated for Senexin B dimaleate rather than free Senexin B) in 6.25% 2-Hydroxypropyl-cyclodextrin, I % Dextrose buffer (CD vehicle), b.i.d. or with the vehicle control.

[7] = Senexin B serum concentration by LC/MS/MS in mice on medicated diet; assay type: in vivo, mouse
Description: as §1

[8] = tested on: CT26 colon cancer cells; test: in vitro growth of CT26 cells; assay type: cell-based, murine; conditions: 1 uM, 5-day assay
Description: To investigate the role of CDK8/19 in colon cancer growth and metastasis, we used murine CT26 colon cancer cell line, derived from a BALB/c mouse following chemical carcinogenesis (Griswold and Corbett, 1975). Cells were propagated in RPMI1640 medium with 10% Fetal Bovine Serum.

CN1CCN(C(=O)c2ccc3cc(CCNc4ncnc5ccc(C#N)cc45)ccc3c2)CC1.Cl.Cl [Senexin B dichloride]
metastatic tumor growth in the liver (liver weight, tumor area) [1]: strongly inhibited metastatic tumor growth in the liver
primary tumor growth in the spleen (spleen weight) [1]: no effect on the primary tumor growth in the spleen

CN1CCN(C(=O)c2ccc3cc(CCNc4ncnc5ccc(C#N)cc45)ccc3c2)CC1.O=C(O)/C=C\C(=O)O.O=C(O)/C=C\C(=O)O [Senexin B dimaleate]
hepatic tumor growth (liver weights) [2]: strong inhibition of hepatic tumor growth
toxicity [3]: no apparent toxicity
mouse body weight ([3]; days 8 and 15 after surgery): no significant change in mouse body weight
survival (Kaplan-Meyer) ([4]; combination: mice inoculated with shCDK8-1 cells and treated with Senexin B, 50 mg/kg gavage b.i.d.): increased the survival time even further
survival (Kaplan-Meyer), efficiency of diet ([4]; low-dose diet (drug mixed into food) compared with high-dose diet): at least as efficient as the high-dose diet
survival (Kaplan-Meyer) ([4]; mice inoculated with vector control cells, 50 mg/kg gavage b.i.d. in CD vehicle): prolonged the survival
liver metastasis (liver weight) ([5]; administered two days prior to splenic inoculation): no effect on liver metastasis
metastatic growth in the liver (liver weight) ([5]; both weeks after inoculation): equally efficient in suppressing metastatic growth in the liver
liver metastasis (liver weight) ([5]; during the first week after inoculation): decreased the liver weights but this effect did not reach statistical significance
metastatic growth in the liver (liver weight) ([5]; only the second week after inoculation): equally efficient in suppressing metastatic growth in the liver
s.c. tumor growth [6]: not statistically significant
average serum concentration ([7]; high-dose diet): 206 nM
average serum concentration ([7]; low-dose diet): 58 nM

CN1CCN(C(=O)c2ccc3cc(CCNc4ncnc5ccc(C#N)cc45)ccc3c2)CC1 [Senexin B]
in vitro growth inhibition of CT26 cells [8]: no significant growth inhibition
